Data on one compound can be found in article PMC12587552, “A nitrogen-containing diphyllin derivative C156-P1 exhibited broad-spectrum antiviral activity against Flaviviridae viruses by preventing endosomal acidification” (Antimicrobial Agents and Chemotherapy, 2025).

For test [1], the system named is ATP6V0A2. The test can be described thus: ATP6V0A2 mRNA level by RT-qPCR. It is filed as cell-based, human. Background: In qPCR the cycle at which signal appears reflects the starting amount.
The test system of test [2] is DENV-2. The test can be described thus: microbe, parasite or virus in culture. The following applies: Dengue virus.
For test [3], the system named is JEV. The test can be described thus: organism not typed. It is filed as cell-based, JEV strain SA14-14-2. The following applies: read-out: EC50 against JEV.
Test [4] relates to DENV-2. The test can be described thus: Time-of-drug-addition assay. The class given is cell-based, DENV-2 strain 16681. Particulars: A549 cells, DENV-2 MOI 2, 50 nM, 48 hpi.
Test [5] deals with IFN-I response / TLR3. The class given is cell-based, human. The following applies: A549 cells, DENV-2 MOI = 2, 50 nM, 12-48 hpi. The method, then:
Fig 6 C156-P1 restricted DENV-2 release from the endosome into the cytoplasm by suppressing the ATP6V0A2 protein. (A and C) A549 cells were infected with DENV-2 (MOI = 2) and treated with C156-P1 (50 nM), and the cells were harvested at 12, 24, 36, and 48 hpi. The mRNA levels of IFNB1, IFIT1, ISG15, OAS1, and TLR3 were quantitated by RT-qPCR. (B) A549 cells were infected with DENV-2 (MOI = 2) and incubated with C156-P1 (50 nM) for 24 h, after which the cell lysates were analyzed by Western blot (left panel), and band density analysis was performed (right panel). […] The intensity of FITC staining was determined using a CytoFLEX flow cytometer (left panel), and the mean fluorescence intensity (MFI) was calculated (right panel). […] The colocalization of E and Rab7A proteins was analyzed using Pearson’s correlation coefficients with the JACoP plugin for ImageJ software. […] (F) A549 cells were treated with DMSO, C156-P1 (100 nM), or PHY34 (100 nM) for 48 h, and ATP6V0A2 mRNA levels were quantified by RT-qPCR. […] The intensity of FITC staining was determined by a flow cytometer (left panel), and the MFI was calculated (right panel). […] The DENV-2 NS3 protein was determined by Western blot. […] The levels of ATP6V0A2 mRNA, intracellular viral RNA, DENV-2 NS3 protein, and extracellular virus titer were assessed at 48 hpi. […]

The subject of test [6] is VSV-eGFP. The test can be described thus: microbe, parasite or virus in culture. It is filed as cell-based. Particulars: Vesicular stomatitis virus, A549, 24 h, read-out: EC50 against VSV-eGFP.

Where two headings read alike, the source gives them in different places.

For orientation: EC50 means the concentration needed to bring the measured effect to its halfway point. In the case of `COc1cc2c(OCC#N)c3c(c(-c4ccc5c(c4)OCO5)c2cc1OC)C(=O)OC3` [Compound C156-P1], the “ATP6V0A2 mRNA expression” value in test [1] was “decrease in ATP6V0A2 mRNA expression”. The half-maximal effective concentration (EC50) in test [2] (DENV2, A549, 48 h, read-out: EC50 against DENV-2) was 1.36 nM; in test [2] (DENV2, HUVEC, 48 h, read-out: EC50 against DENV-2), 1.28 nM; in test [2] (DENV2, Huh-7, 48 h, read-out: EC50 against DENV-2), 4.45 nM; in test [2] (DENV2, Vero, 48 h, read-out: EC50 against DENV-2), 3.78 nM; in test [2] (DENV2, read-out: EC50 against DENV-2, bound stated in text) it was less than 5 nM; in test [3] (A549, 48 h), 2.63 nM. In addition, the EC50 was 2.84 nM in test [3] (Vero, 48 h) and 9.27 nM in test [6]. Moreover, the “Intracellular viral RNA, NS3 protein and extracellular titers, before-, during- and after-incubation groups versus DMSO” value in test [4] is listed as “significantly reduced levels”. In addition, the “TLR3 mRNA expression induced by DENV-2” value in test [5] was “significantly reduced the expression of TLR3 mRNA”. Further, the “mRNA levels of IFNB1 and ISGs (IFIT1, ISG15, OAS1) induced by DENV-2” value in test [5] is given as “apparently suppressed”.
